Series [1] deals with secretion of apolipoprotein B in cell strain HepG2 derived from hepatoma. Nature of the series: Inhibitory activity against secretion of apolipoprotein B (sandwich ELISA). The note with it: Homo sapiens; HepG2 cells, test compound at final concentration of 3 μM. Format: cell-based. As for the experimental part: Inhibitory activity against secretion of apolipoprotein B
The inhibitory activity of the compounds according to the present invention against the secretion of apolipoprotein B was studied using cell strain HepG2 derived from hepatoma.
The test was carried out by the method of Nagata et al. (Biochem. Pharmacol., 40, 843 (1990)) and the method of Furukawa et al. (J. Biol. Chem., 267, 22630 (1992)) which had been partly modified. Specifically, HepG2 cells were cultivated in a Dulbecco's modified Eagle's medium (DMEM), containing 10% fetal calf serum (FCS), 100 units/ml penicillin, and 100 μg/ml streptomycin, placed in 96-well plates. Thereafter, the medium was replaced with DMEM containing 1% bovine serum albumin, and the test compound was simultaneously added to a final concentration of 3 μM or not added, followed by cultivation. Three hr after the replacement of the medium, acetic acid was added to a final concentration of 1 mM, followed by cultivation for additional 4 hr. The amount of apolipoprotein B secreted in the supernatant of the culture thus obtained was quantitatively determined by the sandwich ELISA method. In this case, goat anti-human apolipoprotein B polyclonal antibody (CHEMICON) was used as a primary antibody, and mouse anti-human apolipoprotein B monoclonal antibody peroxidase conjugate (BIOSYS) was used as a secondary antibody.
The inhibition (%) against the secretion of apolipoprotein B was calculated by the following equation:
Inhibition (%) of secretion of apolipoprotein B={1-(amount of apolipoprotein B secreted in the presence of drug)/(amount of apolipoprotein B secreted in the absence of drug)}×100
On the technique in general: ELISA stands for enzyme-linked immunosorbent assay.

The subject of series [2] is biosynthesis of triglycerides in cell strain HepG2 derived from human hepatoma. Put plainly: Inhibitory activity against biosynthesis of triglycerides (14C-acetic acid incorporation). Format: cell-based. The conditions noted are these: HepG2 cells, test compound at final concentration of 3 μM. The procedure:
Inhibitory activity against biosynthesis of triglycerides The inhibitory activity of the compounds according to the present invention against the biosynthesis of triglycerides were studied using cell strain HepG2 derived from human hepatoma.
The test was carried out by the method of Nagata et al. (Biochem. Pharmacol., 40, 843 (1990)) and the method of Furukawa et al. (J. Biol. Chem., 267, 22630 (1992)) which had been partly modified. Specifically, HepG2 cells were cultivated in a Dulbecco's modified Eagle's medium (DMEM), containing 10% fetal calf serum (FCS), 100 units/ml penicillin, and 100 μg/ml streptomycin, placed in 96-well plates. Thereafter, the medium was replaced with DMEM containing 1% bovine serum albumin, and the test compound was simultaneously added to a final concentration of 3 μM or was not added, followed by cultivation. Three hr after the replacement of the medium, ^14C-acetic acid was added to a final concentration of 1 mM, followed by cultivation for additional 4 hr. The cells were washed with a phosphate buffer (pH 7.5) containing 150 mM sodium chloride. Thereafter, lipid within the cells was extracted with n-butanol. After the extraction, the extract was evaporated to dryness under a nitrogen gas stream. The residue was dissolved in a small amount of chloroform. The solution was developed in thin-layer chromatography (developing solvent petroleum ether:diethyl ether:acetic acid=90:15:3), and a ^14C-triglyceride fraction was isolated. The amount of […] produced was then quantitatively determined with a liquid scintillation counter (Beckman, LS-6500).
The inhibition (%) of the biosynthesis of triglycerides was calculated by the following equation:
Inhibition (%) of biosynthesis of triglycerides={1-(amount of ^14C-triglycerides produced in the presence of drug)/(amount of ^14C-triglycerides produced in the absence of drug)}×100.

The next series has as its system wistar rats (male). Put plainly: Acute toxicity test in rats. The conditions noted are these: orally administered 200 mg/kg, observed for 8 days. Format: in vivo. As for the experimental part:
(§1) An acute toxicity test was carried out using mice and rats by a conventional method.

Another series deals with ddY mice (male). Put plainly: Acute toxicity test in mice. Type of series: in vivo. The conditions noted are these: orally administered 200 mg/kg, observed for 8 days. The procedure: as §1

Molecules are shown by their SMILES.

As usually defined, the inhibition is how much of the control response was suppressed. With `CC(C)=CCC/C(C)=C/CC/C(C)=C/CN1CCN(c2ccc3c(c2)C(=O)N(C2CCCCC2)C3)CC1` [Example 5, 2-Cyclohexyl-2,3-dihydro-6-[4-(trans,trans-farnesyl)piperazin-1-yl]-1H-isoindol-1-one], the inhibition at 3 µM in series [1] stood at 56%; in series [2] it was 90%.

As to `O=C1c2cc(N3CCN(CCC(c4ccccc4)c4ccccc4)CC3)ccc2CN1C1CCCCC1` [Example 8, 2-Cyclohexyl-2,3-dihydro-6-[4-(3,3-diphenyl-1-propyl)piperazin-1-yl]-1H-isoindol-1-one], the “change in general states, such as reduction in body weight” value with wistar rats (male) is reported as “any change in general states, such as a reduction in body weight, did not occur”; with ddY mice (male), “any change in general states, such as a reduction in body weight, did not occur”. The “survival in acute toxicity test” value in the series with wistar rats (male) and in the series with ddY mice (male) was “survived” each time. Further, the inhibition at 3 µM in series [1] is 70%; in series [2] it was 79%.

With `CC(C)(C)OC(=O)N1CCN(c2ccc3c(c2)C(=O)N(C2CCCCC2)C3)CC1` [Example 30, 6-[4-(t-Butoxycarbonyl)piperazin-1-yl]-2-cyclo-hexyl-2,3-dihydro-1H-isoindol-1-one], the inhibition at 3 µM came to 68% in series [1] and 89% in series [2].

Regarding `O=C1c2cc(N3CCN(CCC(c4ccccc4)c4ccccc4)CC3)ccc2CCN1C1CCCCC1` [Example 68, 2-Cyclohexyl-7-[4-(3,3-diphenyl-1-propyl)-piperazin-1-yl]-3,4-dihydro-2H-isoquinolin-1-one], the inhibition at 3 µM in series [1] was found to be 61%; in series [2] it was 64%.

Source of the values: patent US6417362B1, “Nitrogenous heterocyclic compounds and hyperlipemia remedy containing the same” (Meiji Seika Kaisha, Ltd., priority 1997, dated 2002).
